In brackets after ≈: the same amount, converted by molar mass.
How the values were obtained:
[1] = Compound was evaluated for its cytotoxicity.; type: functional
Human betaherpesvirus 5 = assay: Compound was evaluated for the antiviral activity against HCMV; type: functional, organism-based
Human alphaherpesvirus 2 = assay: Compound was evaluated for the antiviral activity against HSV-2; type: functional, organism-based
Human alphaherpesvirus 1 = assay: Compound was evaluated for the antiviral activity against HSV-1; type: functional, organism-based
[2] = system: Human immunodeficiency virus 1; assay: Compound was evaluated for the antiviral activity against HIV-1; type: functional, organism-based

SMILES	IC50 [1]	EC50 (Human betaherpesvirus 5)	EC50 (Human alphaherpesvirus 2)	EC50 (Human alphaherpesvirus 1)	EC50 [2]
C=C1[C@H](CO)OC[C@@H]1n1cnc2c(N)ncnc21	> 100 µg/mL	33.3 µg/mL (≈ 135 µM)	> 100 µg/mL	> 100 µg/mL	> 100 µg/mL
C=C1[C@H](CO)OC[C@@H]1n1ccc(=O)[nH]c1=O	100 µg/mL (≈ 446 µM)	10.6 µg/mL (≈ 47.3 µM)	100 µg/mL (≈ 446 µM)	100 µg/mL (≈ 446 µM)	100 µg/mL (≈ 446 µM)
C=C1[C@H](CO)OC[C@@H]1n1cnc2c(O)nc(N)nc21	> 100 µg/mL	> 100 µg/mL	> 100 µg/mL	> 100 µg/mL	> 100 µg/mL
C=C1[C@H](CO)OC[C@@H]1n1cnc2c(O)ncnc21	> 100 µg/mL	> 100 µg/mL	> 100 µg/mL	35 µg/mL (≈ 141 µM)	> 100 µg/mL
C=C1[C@H](CO)OC[C@@H]1n1ccc(N)nc1=O	> 100 µg/mL	> 100 µg/mL	> 100 µg/mL	> 100 µg/mL	> 100 µg/mL
Nc1nc2c(ncn2COCCO)c(=O)[nH]1 [ACYCLOVIR]	250 µg/mL (≈ 1110 µM)		5.12 µg/mL (≈ 22.7 µM)	1.05 µg/mL (≈ 4.68 µM)	
Nc1nc2c(ncn2COC(CO)CO)c(=O)[nH]1 [GANCICLOVIR]	> 10 µg/mL	0.74 µg/mL (≈ 2.9 µM)			
Cc1cn([C@H]2C[C@H](N=[N+]=[N-])[C@@H](CO)O2)c(=O)[nH]c1=O [ZIDOVUDINE]	1 µg/mL (≈ 3.74 µM)				0.00132 µg/mL (≈ 0.00494 µM)

— ChEMBL document CHEMBL1130783, “Synthesis and antiviral activity of novel isodideoxy nucleosides with exocyclic methylene” (Bioorg Med Chem Lett, 1998)
